This assay is described as follows: Inhibition of yeast alpha glucosidase at pH 6.8. Further details: species or system Saccharomyces cerevisiae.
The IC50 is the concentration that gives 50% inhibition. `Oc1cc(O)c2c(c1)Oc1cc3ccccc3cc1C2`: the IC50 was determined as 27.8 µM. In other words, the double-digit micromolar range.
`COc1cc(O)c2c(=O)c3cc4ccccc4cc3oc2c1` displayed an IC50 of 31.3 µM. This IC50 and that of the compound before are within 1.5-fold of each other.
Under `Oc1cc(O)c2c(c1)Oc1ccc3ccccc3c1C2` stands 34.9 µM; under `O=c1c2cc3ccccc3cc2oc2cc(O)cc(O)c12`, 9.3 µM; under `OC[C@H]1NC(O)C[C@@H](O)[C@@H]1O` (stereo not given in full), 26.4 µM.
The same measure for `O=c1c2cc3cc(O)ccc3cc2oc2cc(O)cc(O)c12`: 5.8 µM.
The same measure for `O=c1c2cc3cccc(O)c3cc2oc2cc(O)cc(O)c12`: 8 µM; for `O=c1c2cc3ccccc3cc2oc2c([N+](=O)[O-])c(O)cc(O)c12`: 20.1 µM; for `O=c1c2c(O)cc(O)cc2oc2ccc3ccccc3c12`: 39.9 µM.
`O=c1c2ccccc2oc2cc(O)cc(O)c12`: the midpoint of inhibition, the IC50, lay at 161 µM.

The values above are taken from ChEMBL document CHEMBL1143021, “Synthesis of xanthone derivatives with extended pi-systems as alpha-glucosidase inhibitors: insight into the probable binding mode” (Bioorg Med Chem, 2007).
